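Five compound concentrations were applied to cells in 96-well plates for 48 hours; endpoints were derived by simple linear interpolation of the resulting dose-response curve. GI50 marks 50% less growth. At the TGI there is no net growth.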
Legend:
Assay in all cases: NCI-60 cell line screen, 48 h
[1] = test system: U251 CNS
[2] = test system: MALME-3M melanoma
[3] = test system: HOP-92 NSCLC
[4] = test system: NCI-H460 lung
[5] = test system: UACC-257 melanoma
[6] = test system: SR leukemia
[7] = test system: SK-MEL-28 melanoma
[8] = test system: OVCAR-3 ovarian
[9] = test system: SNB-19 CNS
[10] = test system: UO-31 renal
[11] = test system: NCI-H226 lung
[12] = test system: PC-3 prostate
[13] = test system: A498 renal
[14] = test system: 786-0 renal
[15] = test system: DU-145 prostate
[16] = test system: SF-295 CNS
[17] = test system: TK-10 renal
[18] = test system: KM12 colon
[19] = test system: K-562 leukemia
[20] = test system: NCI-H23 lung
[21] = test system: RPMI-8226 leukemia
[22] = test system: HCC-2998 colon
[23] = test system: M14 melanoma
[24] = test system: MDA-MB-435
[25] = test system: OVCAR-8 ovarian
[26] = test system: COLO 205 colon
[27] = test system: SK-OV-3 ovarian
[28] = test system: HS 578T breast
[29] = test system: CAKI-1 renal
[30] = test system: SN12C renal
[31] = test system: MCF7 breast
[32] = test system: SK-MEL-2 melanoma
[33] = test system: HT29 colon
[34] = test system: HCT-15 colon
[35] = test system: NCI/ADR-RES ovarian
[36] = test system: SK-MEL-5 melanoma
[37] = test system: RXF 393 renal
[38] = test system: HL-60(TB) leukemia
[39] = test system: SNB-75 CNS
[40] = test system: MDA-MB-231 breast
[41] = test system: ACHN renal
[42] = test system: A549 NSCLC
[43] = test system: MOLT-4 leukemia
[44] = test system: HOP-62 NSCLC
[45] = test system: SW-620 colon
[46] = test system: SF-539 CNS
[47] = test system: T-47D breast
[48] = test system: NCI-H522 lung
[49] = test system: BT-549 breast
[50] = test system: IGROV1 ovarian
[51] = test system: HCT-116 colon
[52] = test system: LOX IMVI melanoma
[53] = test system: OVCAR-4 ovarian
[54] = test system: OVCAR-5 ovarian
[55] = test system: EKVX NSCLC
[56] = test system: UACC-62 melanoma
[57] = test system: SF-268 CNS
[58] = test system: CCRF-CEM leukemia

`Nc1nn(C(=O)Nc2ccc(Cc3ccccc3)cc2)c2ccccc12` gave a GI50 [1] of 13.9 µM, a TGI [1] of 30.2 µM and a GI50 [2] of 19.2 µM. It also gave a TGI [2] of 64.1 µM, a GI50 [3] of 14.2 µM and a TGI [3] of 42.6 µM. For the same molecule, the GI50 [4] was 0.409 µM, the TGI [4] was 13 µM and the GI50 [5] was 10 µM. It also gave a TGI [5] of 50.9 µM, a GI50 [6] of 0.0153 µM and a TGI [6] of 0.0822 µM. The GI50 [7] was 11.5 µM, the TGI [7] was over 100 µM and the GI50 [8] was 6.23 µM. For the same molecule, the TGI [8] was 63.1 µM, the GI50 [9] was 22.8 µM and the TGI [9] was over 100 µM. The GI50 [10] was 0.347 µM, the TGI [10] was over 100 µM and the GI50 [11] was 13.5 µM. The TGI [11] was 58.3 µM, the GI50 [12] was 13.5 µM and the TGI [12] was 51.1 µM. It also gave a GI50 [13] of 16.7 µM, a TGI [13] of 31.5 µM and a GI50 [14] of 3.76 µM. The TGI [14] was 26.2 µM, the GI50 [15] was 1.02 µM and the TGI [15] was 28.3 µM. It also gave a GI50 [16] of 0.53 µM, a TGI [16] of over 100 µM and a GI50 [17] of 27.2 µM. It also gave a TGI [17] of over 100 µM, a GI50 [18] of 2.94 µM and a TGI [18] of over 100 µM. For the same molecule, the GI50 [19] was 1.2 µM, the TGI [19] was 33.8 µM and the GI50 [20] was 16.8 µM. The TGI [20] was 83.5 µM, the GI50 [21] was 1.86 µM and the TGI [21] was 25.8 µM. It also gave a GI50 [22] of 4.27 µM, a TGI [22] of 35.9 µM and a GI50 [23] of 0.772 µM. For the same molecule, the TGI [23] was over 100 µM, the GI50 [24] was 2.82 µM and the TGI [24] was over 100 µM. It also gave a GI50 [25] of 21.9 µM, a TGI [25] of 63.9 µM and a GI50 [26] of 13.4 µM. It also gave a TGI [26] of 37.7 µM, a GI50 [27] of 36.9 µM and a TGI [27] of over 100 µM. It also gave a GI50 [28] of 17.2 µM, a TGI [28] of 71.8 µM and a GI50 [29] of 21.1 µM. It also gave a TGI [29] of 58 µM, a GI50 [30] of 12.9 µM and a TGI [30] of 28 µM. It also gave a GI50 [31] of 0.555 µM, a TGI [31] of 8.82 µM and a GI50 [32] of 36.4 µM. For the same molecule, the TGI [32] was over 100 µM, the GI50 [33] was 2.39 µM and the TGI [33] was 17.6 µM. It also gave a GI50 [34] of 1.08 µM, a TGI [34] of over 100 µM and a GI50 [35] of 7.87 µM. The TGI [35] was over 100 µM, the GI50 [36] was 2.22 µM and the TGI [36] was 8.64 µM. For the same molecule, the GI50 [37] was 22.2 µM, the TGI [37] was 58.2 µM and the GI50 [38] was 0.466 µM. The TGI [38] was 15.2 µM, the GI50 [39] was 17 µM and the TGI [39] was 47.4 µM. The GI50 [40] was 0.847 µM, the TGI [40] was 43.9 µM and the GI50 [41] was 1.69 µM. For the same molecule, the TGI [41] was 33.4 µM, the GI50 [42] was 12.9 µM and the TGI [42] was 48.6 µM. It also gave a GI50 [43] of 0.636 µM, a TGI [43] of 20.4 µM and a GI50 [44] of 13.7 µM. It also gave a TGI [44] of 46.5 µM, a GI50 [45] of 3.62 µM and a TGI [45] of 41.5 µM. It also gave a GI50 [46] of 0.495 µM, a TGI [46] of 5.36 µM and a GI50 [47] of 1.55 µM. It also gave a TGI [47] of over 100 µM, a GI50 [48] of 2.9 µM and a TGI [48] of over 100 µM. For the same molecule, the GI50 [49] was 13.5 µM, the TGI [49] was 39.6 µM and the GI50 [50] was 6.98 µM. For the same molecule, the TGI [50] was 48.8 µM, the GI50 [51] was 7.03 µM and the TGI [51] was over 100 µM. For the same molecule, the GI50 [52] was 0.477 µM, the TGI [52] was 16.1 µM and the GI50 [53] was 10.7 µM. For the same molecule, the TGI [53] was 40.4 µM, the GI50 [54] was 31.3 µM and the TGI [54] was over 100 µM. For the same molecule, the GI50 [55] was 11.2 µM, the TGI [55] was 92 µM and the GI50 [56] was 0.353 µM. It also gave a TGI [56] of over 100 µM, a GI50 [57] of 4.66 µM and a TGI [57] of 32.3 µM.
In the case of `Cc1ccc(S(=O)(=O)C2=C3C(=C(c4ccccc4)c4ccccc43)CN(S(=O)(=O)c3ccc(C)cc3)C2)cc1`, the GI50 [1] is reported as 3.01 µM, the TGI [1] is reported as 12.7 µM and the GI50 [2] is reported as 9.71 µM. The TGI [2] was 29.2 µM, the GI50 [3] was 1.86 µM and the TGI [3] was 13.8 µM. The GI50 [4] was 1.94 µM, the TGI [4] was 15.1 µM and the GI50 [5] was 15.8 µM. The TGI [5] was 37.4 µM, the GI50 [6] was 1.55 µM and the TGI [6] was 25.7 µM. The GI50 [7] was 15 µM, the TGI [7] was 52.3 µM and the GI50 [8] was 4.34 µM. The TGI [8] was 18.8 µM, the GI50 [9] was 12.9 µM and the TGI [9] was 55.7 µM. For the same molecule, the GI50 [10] was 1.95 µM, the TGI [10] was 18.2 µM and the GI50 [11] was 2.57 µM. For the same molecule, the TGI [11] was 7.85 µM, the GI50 [12] was 3.39 µM and the TGI [12] was over 100 µM. It also gave a GI50 [14] of 1.67 µM, a TGI [14] of 3.22 µM and a GI50 [15] of 11.8 µM. For the same molecule, the TGI [15] was over 100 µM, the GI50 [16] was 9.97 µM and the TGI [16] was 57 µM. For the same molecule, the GI50 [17] was 14.2 µM, the TGI [17] was 30.1 µM and the GI50 [18] was 5.87 µM. For the same molecule, the TGI [18] was over 100 µM, the GI50 [58] was 0.446 µM and the TGI [58] was over 100 µM. It also gave a GI50 [19] of 2.08 µM, a TGI [19] of over 100 µM and a GI50 [20] of 3.36 µM. It also gave a TGI [20] of 23.7 µM, a GI50 [21] of 1.41 µM and a TGI [21] of 7.41 µM. For the same molecule, the GI50 [22] was 22.5 µM, the TGI [22] was over 100 µM and the GI50 [23] was 5.63 µM. It also gave a TGI [23] of 34.4 µM, a GI50 [24] of 3.76 µM and a TGI [24] of 17.9 µM. For the same molecule, the GI50 [25] was 2.65 µM, the TGI [25] was 38.1 µM and the GI50 [26] was 14.9 µM. It also gave a TGI [26] of over 100 µM, a GI50 [27] of over 100 µM and a TGI [27] of over 100 µM. The GI50 [28] was 2.57 µM, the TGI [28] was 39.9 µM and the GI50 [29] was 11.5 µM. It also gave a TGI [29] of over 100 µM, a GI50 [30] of 3.04 µM and a TGI [30] of 20.1 µM. The GI50 [31] was 2.43 µM, the TGI [31] was over 100 µM and the GI50 [32] was 6.1 µM. It also gave a TGI [32] of 30.3 µM, a GI50 [33] of 3.32 µM and a TGI [33] of 69.4 µM. The GI50 [34] was 2.32 µM, the TGI [34] was 16.3 µM and the GI50 [35] was 2.98 µM. For the same molecule, the TGI [35] was 90.7 µM, the GI50 [36] was 5.04 µM and the TGI [36] was 18.3 µM. It also gave a GI50 [37] of 4.01 µM, a TGI [37] of 16 µM and a GI50 [38] of 11.2 µM. For the same molecule, the TGI [38] was over 100 µM, the GI50 [39] was 2.92 µM and the TGI [39] was 31.6 µM. It also gave a GI50 [40] of 2.9 µM, a TGI [40] of 11.1 µM and a GI50 [41] of 4.52 µM. The TGI [41] was 19.3 µM, the GI50 [42] was over 100 µM and the TGI [42] was over 100 µM. It also gave a GI50 [43] of 1.36 µM, a TGI [43] of 7.9 µM and a GI50 [44] of 15.4 µM. For the same molecule, the TGI [44] was 51.9 µM, the GI50 [45] was 0.636 µM and the TGI [45] was 3.4 µM. It also gave a GI50 [46] of 10.9 µM, a TGI [46] of 49 µM and a GI50 [47] of 2.91 µM. It also gave a TGI [47] of 31.5 µM, a GI50 [48] of 2.41 µM and a TGI [48] of 6.35 µM. The GI50 [49] was 1.93 µM, the TGI [49] was 4.65 µM and the GI50 [50] was 5.36 µM. For the same molecule, the TGI [50] was 62.6 µM, the GI50 [51] was 2 µM and the TGI [51] was 7.78 µM. For the same molecule, the GI50 [52] was 1.12 µM, the TGI [52] was 2.42 µM and the GI50 [53] was 5.31 µM. The TGI [53] was 72.9 µM, the GI50 [54] was 25.4 µM and the TGI [54] was over 100 µM. The GI50 [55] was 6.01 µM, the TGI [55] was over 100 µM and the GI50 [56] was 4.85 µM. The TGI [56] was 24.9 µM, the GI50 [57] was 2.6 µM and the TGI [57] was 12.9 µM.

Source: PubChem BioAssay (NCI)
